# Patent publication US12134663B2, “Cationic peptides for activating Lck” (Interk Peptide Therapeutics Limited, priority 2018, dated 2024)
# Where no end group is shown, it is not given here. [ ]: non-standard residue; d: D form.
# B1: CD40L: CD40L (5 ug/mL) added to immature monocyte derived DC cultures (protein, UniProt P29965 113-261, looked up)
# CD40 ligand, soluble form: MQKGDQNPQIAAHVISEASSKTTSVLQWAEKGYYTMSNNLVTLENGKQLTVKRQGLYYIYAQVTFCSNREASSQAPFIASLCLKSPGRFERILLRAANTHSSAKPCGQQSIHLGGVFELQPGASVFVNVTDPSQVSHGTGFTSFGLLKL
# Tests used:
# [1] = target: T1, Lck (Homo sapiens, UniProt P06239); assay: In vitro Lck activation kinase study (Eurofins); type: biochemical; conditions: peptide 1 μM; relative to control
# T1 construct: purchased Eurofins Pharma Discovery Services UK Limited
# T1 sequence (P06239 whole entry): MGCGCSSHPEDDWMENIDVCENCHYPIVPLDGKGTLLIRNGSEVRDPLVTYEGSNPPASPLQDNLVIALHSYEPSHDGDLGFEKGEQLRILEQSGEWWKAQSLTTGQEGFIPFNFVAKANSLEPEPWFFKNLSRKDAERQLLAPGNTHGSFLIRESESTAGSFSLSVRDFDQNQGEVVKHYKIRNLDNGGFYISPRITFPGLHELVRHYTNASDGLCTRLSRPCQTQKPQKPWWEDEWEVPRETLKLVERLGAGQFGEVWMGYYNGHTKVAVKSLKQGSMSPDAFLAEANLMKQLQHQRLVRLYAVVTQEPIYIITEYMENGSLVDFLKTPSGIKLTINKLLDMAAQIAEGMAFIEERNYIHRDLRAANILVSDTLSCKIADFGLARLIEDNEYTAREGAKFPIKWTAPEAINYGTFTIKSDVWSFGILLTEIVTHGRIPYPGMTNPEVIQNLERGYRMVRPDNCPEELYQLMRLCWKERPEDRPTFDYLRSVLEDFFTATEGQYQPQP
# Procedure: The ability of polypeptides of the present invention to activate Lck was examined in vitro. Lck is member of the Src family of tyrosine kinases. […] All results in are percentage Lck activity relative to control (100%).
# Test polypeptides were assessed at a concentration of 1.0 μM.
# The ability of polypeptides of the present invention to activate Src family kinases was examined in vitro. Kinase activation studies utilising peptides were carried out as described in Example 1, and all kinase activity values are shown as percentage relative to control.
# The ability of polypeptides comprising both lysine and arginine to activate Lck in vitro was examined. Lck activation studies utilising peptides were carried out as described in Example 1, and all kinase activity values are shown as percentage relative to control.
# [2] = system: exhausted CD4+ T cells; assay: CD4+ T cell exhaustion assay, CD25 on restimulation; type: cell-based, murine; conditions: 72 hours; relative to IK14000 control peptide
# Text: A CD4+ T cell exhaustion assay using a murine model (Tg4 Ly5.1 (MBP-Tracker Mouse), B10PIxC57BL/6) was used whereby CD4+ T cell receptor transgenic T cells are stimulated with wild-type myelin basic protein peptide (WT-MBP) to produce fully responsive effector T cells or altered peptide ligand peptide MBP (APL-MBP) to produce exhausted T cells. These are rested in IL-2 and then a secondary stimulation with APC, a dose of APL-MBP peptide along with any treatments under investigation.
# Spleens from the aforementioned mice were removed and processed to generate a single cell suspension of splenocytes. MBP-Tracker splenocytes were resuspended at 3×10^6/mL and stimulated with WT-MBP (control, non-exhausted cells) or APL-MBP (to generate exhausted cells). Cells were stimulated for 72 hr. Following stimulation, T cells were purified by Ficoll density gradient, and subsequently re-plated at 2×10^6/mL in 20 U/mL IL-2 for four days. […] Following 48-72b hours of culture the cells were assessed by flow cytometry for markers of IL-2Ra and proliferation (CD25 and Ki-67, respectively) and supernatant was collected for assessment of cytokine production (IFN-γ and TNF-α) by ELISA or multiplexed immunoassays. […]
# [3] = system: anti-CD3 stimulated PBMCs; assay: IL-12p70 secretion in anti-CD3 stimulated PBMCs; type: cell-based, human; conditions: 24 hours
# Procedure: The ability of Lck activating polypeptides to alter IL-12 (IL-12p70) secretion was examined further. In brief, anti-CD3 stimulated PBMCs were cultured together with the Lck activating polypeptides RVKVKVVVV-RRRRRRRRR (SEQ ID NO: 58, “IK15800”), RSKAKNPLY-RRRRRRRRR (SEQ ID NO: 24, “IK14800”), and RVKVKVVVV-RRRRRRRRR (SEQ ID NO: 58) and RSKAKNPLY-RRRRRRRRR (SEQ ID NO: 24) comprising only D amino acids (SEQ ID NO: 111, “IKD15800”, and SEQ ID NO: 129, “IKD14800”, respectively), in the presence and absence of anti-CD40L blocking antibody for 24 hours. Supernatants were assessed for IL-12p70 levels by ELISA.
# The ability of Lck activating polypeptides to alter IL-12 (IL-12p70) secretion was examined relative to no peptide. In brief, PBMCs were cultured together with anti-CD3 (1 ug/ml) and the Lck activating polypeptide RSKAKNPLY-RRRRRRRRR (SEQ ID NO: 24) or RVKVKVVVV-RRRRRRRRR (SEQ ID NO: 58) for 24 or 72 hours. Supernatants were assessed for IL-12p70 levels by ELISA.
# [4] = system: isolated human CD4+ T cells; assay: IFN-γ secretion in stimulated CD4+ T cell assay; type: cell-based; conditions: anti-CD3 anti-CD28 Dynabeads, 24 hours
# Procedure: (§1) The ability of Lck activating polypeptides to alter IFN-γ secretion by isolated human CD4+ T cells in a stimulated CD4+ T cell assay was also examined. In brief, Isolated CD4+ T cells were stimulated with anti-CD3 anti-CD28 Dynabeads™ and cultured together with the Lck activating polypeptides RRRRRRRRR (SEQ ID NO: 6, IK00900) and RSKAKNPLY-RRRRRRRRR (SEQ ID NO: 24, IK14800) for 24 hours after which supernatants were assessed for IFN-γ by ELISA.
# as §1, with “polypeptides comprising D amino acids” for “polypeptides”, “polypeptide” for “polypeptides RRRRRRRRR (SEQ ID NO: 6, IK00900) and”, “IK14800), or the Lck activating polypeptide RSKAKNPLY-RRRRRRRRR (SEQ ID NO: 24) comprising only D amino acids (SEQ ID NO: 129, IKD14800),” for “IK14800)”
# [5] = system: isolated human CD8+ T cells; assay: IFN-γ secretion in stimulated CD8+ T cell assay; type: cell-based; conditions: anti-CD3 anti-CD28 Dynabeads, 24 hours
# Procedure: as §1, with “CD8+” for “CD4+”, “was” for “was also”
# In brief, Isolated CD8+ T cells were stimulated with anti-CD3 anti-CD28 Dynabeads™ and cultured together with the Lck activating polypeptide RSKAKNPLY-RRRRRRRRR (SEQ ID NO: 24), comprising only D amino acids (SEQ ID NO: 129, IKD14800), for 24 hours after which supernatants were assessed for IFN-γ by ELISA.
# [6] = system: isolated CD8+ T cells; assay: IL-18Ra expression on stimulated CD8+ T cells; type: cell-based, human; conditions: 24 hours; data not shown
# Procedure: The effect of Lck activating polypeptides on IL-18Ra expression on CD4+ and CD8+ T cells in stimulated CD4+ and CD8+ T cell assays was examined. In brief, isolated CD8+ T cells were stimulated with anti-CD3 anti-CD28 Dynabeads™ and cultured together with the Lck activating polypeptides RSKAKNPLY-RRRRRRRRR (SEQ ID NO: 24), and RSKAKNPLY-RRRRRRRRR (SEQ ID NO: 24) comprising only D amino acids (SEQ ID NO: 129), for 24 hours after which cells were assessed for IL-18Ra expression by flow cytometry.
# [7] = system: isolated CD4+ T cells; assay: IL-18Ra expression on stimulated CD4+ T cells; type: cell-based, human; conditions: 24 hours; data not shown
# Procedure: Isolated CD4+ T cells were stimulated with anti-CD3 anti-CD28 Dynabeads™ and cultured together with the Lck activating polypeptides RSKAKNPLY-RRRRRRRRR (SEQ ID NO: 24), and RSKAKNPLY-RRRRRRRRR (SEQ ID NO: 24) comprising only D amino acids (SEQ ID NO: 129), for 24 hours after which cells were assessed for IL-18Ra expression by flow cytometry.
# [8] = system: isolated T cells (CD3+); assay: IL-2 secretion from isolated T cells (CD3+); type: cell-based, human; conditions: anti-CD3 anti-CD28 Dynabeads, 0-1.25 μM, 72 hours
# Procedure: In brief, isolated T cells (CD3+) were stimulated with anti-CD3 anti-CD28 Dynabeads™ and cultured together the Lck activating polypeptides RSKAKNPLY-RRRRRRRRR (SEQ ID NO: 24, “IK14800”), RVKVKVVVV-RRRRRRRRR (SEQ ID NO: 58, “IK15800”), and RVKVKVVVV-RRRRRRRRR ([…]) comprising only D amino acids (i.e. rvkvkvvvv-rrrrrrrrr; […], “IKD15800”), over a 5-concentration range plus vehicle control (0-1.25 μM) for 72 hours after which supernatants were collected and assessed for IL-2 by ELISA.
# [9] = system: CD3neg CD56+ NK cells; assay: CD3neg CD56+ NK cells within stimulated PBMCs (Ki67, CD25, CD215, CD360); type: cell-based, human; conditions: data not shown
# Procedure: The ability of Lck activating polypeptides to induce proliferation of isolated human CD3^neg CD56^+ NK cells within PBMCs was examined. In brief, anti-CD3 stimulated PBMCs were cultured together with the Lck activating polypeptide rvkvkvvvv-rrrrrrrrr (SEQ ID NO: 111, IKD15800) for 72 hours after which CD3^neg CD56^+ NK cells were assessed for Ki67 expression by flow cytometry. Ki67 is a proliferation marker used to determine the growth fraction of a given cell population, in this case CD3^neg CD56^+ NK cells.
# [10] = system: CD4+ T cells; assay: pSTAT4 expression in stimulated T cell assay; type: cell-based, human; conditions: 0-1.25 μM, 72 hours; data not shown
# Text: The effect of Lck activating polypeptides on intracellular pSTAT4 expression in CD4+ and CD8+ T cells in a stimulated T cell assay was examined. In brief, isolated T cells (CD3+) were stimulated with anti-CD3 anti-CD28 Dynabeads™ and cultured together with the Lck activating polypeptides RSKAKNPLY-RRRRRRRRR (SEQ ID NO: 24), RVKVKVVVV-RRRRRRRRR (SEQ ID NO: 58) and RVKVKVVVV-RRRRRRRRR (SEQ ID NO: 58) comprising only D amino acids (SEQ ID NO: 111), over a 5-concentration range plus vehicle control (0-1.25 μM) for 72 hours after which […] assessed for p-STAT4 expression by flow cytometry.
# [11] = system: immature monocyte derived DCs (iMoDCs); assay: Dendritic cell phenotype (CD14 expression) in immature DC cultures; type: cell-based; conditions: CD40L 5 ug/mL and anti-CD3, 72 hours; data not shown
# Procedure: The effect of CD40L on dendritic cell phenotype (CD14 expression) in isolated immature DC cell cultures was examined. In brief, immature monocyte derived DCs (iMoDCs) were derived from isolated CD14+ monocytes cultured for 7 days in MoDC differentiation media. iMoDCs were cultured for 72 hours in the presence of CD40L (5 ug/mL) and anti-CD3 (1 ug/mL). After 72 hours, cells were assessed for CD14 and CD11c expression by flow cytometry to determine DC cell phenotype.
# In brief, immature monocyte derived DCs (iMoDCs) were derived from isolated CD14+ monocytes cultured for 7 days in Mo-DC differentiation media. iMoDCs were cultured for 72 hrs in the presence of test peptides over a 5-point concentration curve plus vehicle (0-1.25 μM) and anti-CD3 (1 μg/mL). After 72 hrs, cells were assessed for CD14 and CD11c expression by flow cytometry to determine DC cell phenotype. Data presented indicates the mean respective CD14 positive or negative cell populations (%) within CD11c positive population in response to peptide treatment, +/− SEM, n=4. Data were analysed by RM two-way ANOVA with Dunnett's post-test comparing each peptide concentration with vehicle, *p<0.05, **p<0.01, ***p<0.001.
molecule,measurement,setting,value
rskaknplyrrrrrrrrr ([dR][dS][dK][dA][dK][dN][dP][dL][dY][dR][dR][dR][dR][dR][dR][dR][dR][dR]) [IKD14800],increase in Lck activity,[1],490%
same,expression of CD25 in exhausted CD4+ T cells upon restimulation,[2],increased
same,IL-12 (IL-12p70) secretion relative to cultures with anti-CD40L blocking antibody,[3],induce IL-12 secretion
same,IFN-γ secretion relative to no peptide control,[4],induces IFN-γ secretion
same,IFN-γ secretion relative to no peptide control,[5],induces IFN-γ secretion
same,IL-18Ra expression on CD8+ T cells,[6],increase IL-18Ra expression
same,IL-18Ra expression on CD4+ T cells,[7],increase IL-18Ra expression
rvkvkvvvv-rrrrrrrrr ([dR][dV][dK][dV][dK][dV][dV][dV][dV][dR][dR][dR][dR][dR][dR][dR][dR][dR]) [IKD15800],IL-2 secretion relative to control,[8],induce IL-2 secretion
same,IL-12 (IL-12p70) secretion relative to cultures with anti-CD40L blocking antibody,[3],induce IL-12 secretion
same,proliferating population of CD3neg CD56+ NK cells (Ki67),[9]; 72 hours,increased the proliferating population
same,population of CD3neg CD56+ NK cells that were CD25 positive,[9],increased the population
same,population of CD3neg CD56+ NK cells that were CD215 positive,[9],increased the population
same,population of CD3neg CD56+ NK cells that were CD360 positive,[9],increased the population
same,p-STAT4 expression on CD4+ T cells,[10],increase p-STAT4 expression
B1,proportion of CD14 negative CD11c+ dendritic cells,[11],increased the proportion of CD14 negative CD11c+ dendritic cells
